# Measurements reported in ChEMBL document CHEMBL4406920, “Tetrazole as a Replacement of the Electrophilic Group in Characteristic Prolyl Oligopeptidase Inhibitors” (ACS Med Chem Lett, 2019).
# Target: Prolyl endopeptidase (Sus scrofa, UniProt P23687)
# Experiment: Inhibition of recombinant porcine brain PREP expressed in Escherichia coli assessed as formation of 7-amido-4-methylcoumarin using Suc-Gly-Pro-amido-4-methylcoumarin as substrate preincubated for 30 mins followed by substrate addition measured after 60 mins by fluorometric assay
# Chain of Prolyl endopeptidase (Sus scrofa, UniProt P23687) (P23687 whole entry): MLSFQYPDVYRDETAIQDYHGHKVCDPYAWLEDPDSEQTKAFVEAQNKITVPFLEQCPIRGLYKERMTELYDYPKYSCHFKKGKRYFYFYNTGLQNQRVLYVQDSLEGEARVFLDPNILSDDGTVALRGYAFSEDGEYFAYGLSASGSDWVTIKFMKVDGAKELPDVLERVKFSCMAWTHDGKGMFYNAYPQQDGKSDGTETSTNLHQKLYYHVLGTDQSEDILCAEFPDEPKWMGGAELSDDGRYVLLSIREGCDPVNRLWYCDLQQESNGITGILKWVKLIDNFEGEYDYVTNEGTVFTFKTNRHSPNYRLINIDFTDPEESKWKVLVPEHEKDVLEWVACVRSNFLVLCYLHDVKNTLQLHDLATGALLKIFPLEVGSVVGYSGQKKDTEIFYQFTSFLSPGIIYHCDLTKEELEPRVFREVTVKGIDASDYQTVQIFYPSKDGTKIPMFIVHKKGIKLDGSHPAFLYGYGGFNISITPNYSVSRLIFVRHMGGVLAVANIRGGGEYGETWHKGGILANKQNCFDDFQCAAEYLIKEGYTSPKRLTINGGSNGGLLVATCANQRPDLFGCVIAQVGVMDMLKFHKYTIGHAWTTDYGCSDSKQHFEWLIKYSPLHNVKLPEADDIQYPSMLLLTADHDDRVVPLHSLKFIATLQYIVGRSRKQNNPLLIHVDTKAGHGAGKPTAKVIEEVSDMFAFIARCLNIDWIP
row,IC50 [µM],Compound
1,0.012,O=C(CCCc1ccccc1)N1CCC[C@H]1C(=O)N1CCC[C@H]1c1nnn[nH]1
2,27.2,C[C@@H](C(=O)N1CCC[C@H]1c1nnn[nH]1)N(C)C(=O)CCCc1ccccc1
3,0.22,N#C[C@@H]1CCCN1C(=O)CNC(=O)CCCc1ccccc1
4,205,O=C(CCCc1ccccc1)NCC(=O)N1CCC[C@H]1c1nnn[nH]1
5,10.6,CN(CC(=O)N1CCC[C@H]1c1nnn[nH]1)C(=O)CCCc1ccccc1
6,0.00406,C[C@H](NC(=O)CCCc1ccccc1)C(=O)N1CCC[C@H]1C#N

# The remaining lines, values behind:
row,Compound,IC50 [µM]
1,C[C@@H](C(=O)N1CCC[C@H]1C#N)N(C)C(=O)CCCc1ccccc1,0.0054
2,C[C@H](NC(=O)CCCc1ccccc1)C(=O)N1CCC[C@H]1C(=O)O,17.5
3,NC(=O)[C@@H]1CCCN1C(=O)[C@@H]1CCCN1C(=O)CCCc1ccccc1,4.37
4,C[C@H](NC(=O)CCCc1ccccc1)C(=O)N1CCCC1,0.147
5,CN(CC(=O)N1CCC[C@H]1C#N)C(=O)CCCc1ccccc1,0.269
6,O=C(O)[C@@H]1CCCN1C(=O)[C@@H]1CCCN1C(=O)CCCc1ccccc1,3.63

# Target: Prolyl endopeptidase (Mus musculus, UniProt Q9QUR6)
# Experiment: Inhibition of PREP in C57BL/6 mouse cortex homogenate assessed as formation of 7-amido-4-methylcoumarin using Suc-Gly-Pro-amido-4-methylcoumarin as substrate preincubated for 30 mins followed by substrate addition measured after 60 mins by fluorometric assay
# Chain of Prolyl endopeptidase (Mus musculus, UniProt Q9QUR6) (Q9QUR6 whole entry): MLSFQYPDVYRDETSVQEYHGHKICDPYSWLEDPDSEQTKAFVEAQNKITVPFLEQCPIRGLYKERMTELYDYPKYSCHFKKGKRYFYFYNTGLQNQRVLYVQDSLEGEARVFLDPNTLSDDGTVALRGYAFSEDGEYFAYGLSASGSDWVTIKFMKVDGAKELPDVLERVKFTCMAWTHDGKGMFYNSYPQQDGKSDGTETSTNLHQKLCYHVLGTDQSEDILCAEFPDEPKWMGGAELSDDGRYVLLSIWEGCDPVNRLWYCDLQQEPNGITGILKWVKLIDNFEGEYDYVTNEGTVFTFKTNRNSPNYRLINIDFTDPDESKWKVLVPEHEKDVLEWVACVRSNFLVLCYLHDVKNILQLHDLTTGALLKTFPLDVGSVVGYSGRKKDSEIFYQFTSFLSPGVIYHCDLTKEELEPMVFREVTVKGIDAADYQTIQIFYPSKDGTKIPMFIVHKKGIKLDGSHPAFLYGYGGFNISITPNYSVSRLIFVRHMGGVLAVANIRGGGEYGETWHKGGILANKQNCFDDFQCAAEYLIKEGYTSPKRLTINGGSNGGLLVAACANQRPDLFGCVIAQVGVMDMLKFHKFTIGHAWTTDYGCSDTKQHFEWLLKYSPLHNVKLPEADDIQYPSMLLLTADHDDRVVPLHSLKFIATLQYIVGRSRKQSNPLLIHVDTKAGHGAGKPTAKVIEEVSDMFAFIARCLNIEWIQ
row,IC50 [µM],Compound
1,457,CN(CC(=O)N1CCC[C@H]1C(N)=O)C(=O)CCCc1ccccc1
2,154,NC(=O)[C@@H]1CCCN1C(=O)CNC(=O)CCCc1ccccc1
3,0.264,N#C[C@@H]1CCCN1C(=O)CNC(=O)CCCc1ccccc1
4,0.091,C[C@H](NC(=O)CCCc1ccccc1)C(=O)N1CCC[C@H]1c1nnn[nH]1
5,0.00328,C[C@H](NC(=O)CCCc1ccccc1)C(=O)N1CCC[C@H]1C#N
6,6.21,C[C@H](NC(=O)CCCc1ccccc1)C(=O)N1CCC[C@H]1C(N)=O

# Further lines, the compound ahead of its results:
row,Compound,IC50 [µM]
1,C[C@@H](C(=O)N1CCC[C@H]1C(N)=O)N(C)C(=O)CCCc1ccccc1,28.8
2,CC(C)(NC(=O)CCCc1ccccc1)C(=O)N1CCCC1,13.5
3,CN(CC(=O)N1CCCC1)C(=O)CCCc1ccccc1,5.14
4,C[C@@H](NC(=O)CCCc1ccccc1)C(=O)N1CCCC1,35.2
5,C[C@@H](C(=O)N1CCCC1)N(C)C(=O)CCCc1ccccc1,0.298
6,O=C(CCCc1ccccc1)NCCC(=O)N1CCCC1,12.1
